32 compounds from patent US20060223837A1 (priority 2005, published 2006) can be followed below.

The structures appear in SMILES notation.

The target in assay [1] is T1, human VR1 (Homo sapiens, UniProt Q8NER1).
T1 construct: expressed in transfected cells; host or cells: HEK293
Description: Human VR1 [3H]RTX binding assay. The settings on record: for Ki: [3H]RTX binding, HEK293 membranes; for inhibition at 1 µM / h Binding % I (1 μM): inhibition of [3H]RTX binding at 1 μM; for inhibition at 1 µM: read-out: h Binding % I (1 μM). The procedure: Compounds of the present invention were tested for their ability to inhibit the binding of tritiated resiniferatoxin ([^3H] RTX) to human VR1 receptors in a [^3H] RTX binding assay, as previously described (Zhang, Sui-Po. Improved ligand binding assays for vanilloid receptors. PCT Int. Appl. (2002), WO 0233411 A1 20020425 AN 2002:315209; Grant, Elfrida R., Dubin, Adrienne E., Zhang, Sui-Po, Zivin, Robert A., Zhong, Zhong Simultaneous intracellular calcium and sodium flux imaging in human VR1-transfected human embryonic kidney cells: a method to resolve ionic dependence of VR1-mediated cell death. J. Pharmacol. Exp. ther., 2002, 300(1), 9-17.) HEK293 cells were transfected with human VR1 and washed with Hank's balanced Salt Solution, dissociated with cell dissociation buffer (Sigma), and then centrifuged at 1000× g for 5 min. Cell pellets were homogenized in cold 20 mM HEPES buffer (pH 7.4), containing 5.8 mM NaCl, 320 mM sucrose, 2 mM MgCl2, 0.75 CaCl2 and 5 mM KCl and centrifuged at 1000× g for 15 min. The resultant supernate was then centrifuged at 40000× g for 15 min. The pelleted membranes were stored in a freezer at −80 C.
Approximately 120 μg protein/ml from membranes were incubated with indicated concentrations of [^3H]RTX in 0.5 ml of the HEPES buffer (pH 7.4) containing 0.25 mg/mL fatty acid-free bovine serum albumin at 37 C for 60 min. After cooling the reaction mixture to 4 C, 0.1 mg (x-acid glycoprotein was added to each sample, which was incubated at 4 C for 15 min and then centrifuged at 18500× g for 15 min. The tip of the microcentrifuge tube containing the pellet was cut off. Bound radioactivity was quantified by scintillation counting. Non-specific binding was assessed in the presence of 200 nM unlabeled resiniferatoxin.
Data were calculated according to the equation: % inhibtion=(total binding−binding)*100/(total binding−non specific binding).
Ki values were calculated based on an average of duplicate measurements using a GraphPad Prism program.

The target in assay [2] is T1, human VR1. As to the kind of experiment: Human VR1 functional assay (FLIPR intracellular Ca2+). The format is cell-based. The settings on record: for Emax at 12 µM: read-out: % Response Relative to EC80 of Capsaicin (12 μM); for h % I (10 μM) / inhibition at 10 µM: inhibition of capsaicin response; for IC50: antagonism of capsaicin-induced Ca2+ increase, read-out: h IC50; for inhibition at 10 µM: read-out: h % I (10 μM); for EC50: agonist-induced Ca2+ increase, read-out: h EC50. The method in brief:
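Read-out was Ca2+-dye fluorescence by FLIPR: compounds at varying concentrations were added to dye-loaded human VR1 HEK293 cells and monitored 5 min before capsaicin addition ([…], approx. EC80). Dose-response data, averaged over four wells, gave EC50 or IC50.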

T1 sequence (Q8NER1 whole entry): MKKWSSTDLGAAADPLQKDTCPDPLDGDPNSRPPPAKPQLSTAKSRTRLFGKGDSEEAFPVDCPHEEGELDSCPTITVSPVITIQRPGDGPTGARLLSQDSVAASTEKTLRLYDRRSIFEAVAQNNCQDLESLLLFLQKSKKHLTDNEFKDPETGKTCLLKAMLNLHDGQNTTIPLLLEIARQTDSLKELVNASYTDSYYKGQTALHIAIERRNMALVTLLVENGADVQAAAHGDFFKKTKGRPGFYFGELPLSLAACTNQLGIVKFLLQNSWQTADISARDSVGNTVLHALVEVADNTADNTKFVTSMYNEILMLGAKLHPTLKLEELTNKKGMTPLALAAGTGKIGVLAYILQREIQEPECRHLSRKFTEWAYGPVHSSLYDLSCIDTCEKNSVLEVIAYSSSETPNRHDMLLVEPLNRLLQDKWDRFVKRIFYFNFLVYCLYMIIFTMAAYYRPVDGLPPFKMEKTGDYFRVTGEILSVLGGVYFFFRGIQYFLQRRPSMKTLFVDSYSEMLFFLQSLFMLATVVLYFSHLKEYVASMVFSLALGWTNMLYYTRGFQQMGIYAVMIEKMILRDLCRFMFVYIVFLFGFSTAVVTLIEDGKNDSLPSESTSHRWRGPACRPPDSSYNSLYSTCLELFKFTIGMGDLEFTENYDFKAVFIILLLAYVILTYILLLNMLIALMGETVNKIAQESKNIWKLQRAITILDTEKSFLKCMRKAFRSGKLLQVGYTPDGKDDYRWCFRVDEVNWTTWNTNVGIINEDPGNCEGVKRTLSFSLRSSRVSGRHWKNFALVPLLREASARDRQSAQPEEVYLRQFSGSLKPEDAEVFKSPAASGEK

Regarding `CC(=O)Nc1cccc(-c2ccc(NC(=O)CCc3ccc(C(C)(C)C)cc3)cc2)c1` [Cpd 16], in assay [1], the Ki is 169 nM and the inhibition at 1 µM stood at 68%. Besides, the Emax at 6 µM in assay [2] (agonist response, 6 μM, read-out: % Response Relative to EC80 of Capsaicin (6 μM)) was 63%. Moreover, the Emax at 12 µM in assay [2] (agonist response) turned out to be 101%.

In the case of `CC(C)(C)c1ccc(CCC(=O)Nc2ccc(-c3cccc(N)c3)cc2)cc1` [Cpd 17], in assay [1], the Ki was 48 nM and the inhibition at 1 µM came out at 90%. Further, the Emax at 12 µM in assay [2] (agonist response) was determined as 67%.

Turning to `CC(C)(C)c1ccc(CCC(=O)Nc2ccccc2-c2cccc(CO)c2)cc1` [Cpd 19], in assay [1], the “h Binding % I (1 μM)” value came to 1%. For the same compound, in assay [2], the “h % I (10 μM)” value was 20%.

For the compound `CC(C)(C)c1ccc(CCC(=O)Nc2ccccc2-c2ccc(CO)cc2)cc1` [Cpd 20], the inhibition at 1 µM in assay [1] was 1%. In addition, in assay [2], the IC50 worked out at 2080 nM and the inhibition at 10 µM amounted to 70%.

As for `CC(C)(C)c1ccc(CCC(=O)Nc2cccc(-c3cccc(CO)c3)c2)cc1` [Cpd 21], the “h Binding % I (1 μM)” value in assay [1] is 1%. For the same compound, in assay [2] (agonist response), the “% Response Relative to EC80 of Capsaicin (12 μM)” value worked out at 45%.

On to `CC(C)(C)c1ccc(CCC(=O)Nc2cccc(-c3ccc(CO)cc3)c2)cc1` [Cpd 22], for which, in assay [1], the “h Binding % I (1 μM)” value amounted to 1%. Also, the “h % I (10 μM)” value in assay [2] stood at 1%.

`CC(C)(C)c1ccc(CCC(=O)Nc2ccc(-c3ccc(CO)cc3)cc2)cc1` [Cpd 24]: in assay [1], affinity was put at a Ki of 84 nM and the inhibition at 1 µM was 87%. In addition, in assay [2] (agonist response), the Emax at 12 µM was determined as 68%. In addition, in assay [2], the inhibition at 10 µM amounted to 32%.

Turning to `CC(C)(C)c1ccc(CCC(=O)Nc2ccc(-c3cccc(OC(F)(F)F)c3)cc2)cc1` [Cpd 26], the “h Binding % I (1 μM)” value in assay [1] is recorded as 10%. Besides, the “% Response Relative to EC80 of Capsaicin (12 μM)” value in assay [2] (agonist response) was 65%.

For the compound `Cc1cccc(-c2ccc(NC(=O)CCc3ccc(C(C)(C)C)cc3)cc2)c1` [Cpd 28], in assay [1], the “h Binding % I (1 μM)” value stood at 48%. In addition, the “% Response Relative to EC80 of Capsaicin (12 μM)” value in assay [2] (agonist response) turned out to be 81%.

As to `COC(=O)c1cccc(-c2ccc(NC(=O)CCc3ccc(C(C)(C)C)cc3)cc2)c1` [Cpd 29, 4′-[3-(4-tert-butyl-phenyl)-propionylamino]-biphenyl-3-carboxylic acid methyl ester], in assay [1], the inhibition at 1 µM is 43%. Moreover, in assay [2], the inhibition at 10 µM came out at 36%.

For the compound `CC(C)(C)c1ccc(CCC(=O)Nc2ccc(-c3cccc(C(=O)O)c3)cc2)cc1` [Cpd 30, 4′-[3-(4-tert-butyl-phenyl)-propionylamino]-biphenyl-3-carboxylic acid], the inhibition at 1 µM in assay [1] was found to be 2%. The Emax at 12 µM in assay [2] (agonist response) is 94%. The EC50 in assay [2] was 1420 nM.

Regarding `CC(C)(C)c1ccc(CCC(=O)Nc2ccc(-c3cccc(C(N)=O)c3)cc2)cc1` [Cpd 31, 4′-[3-(4-tert-butyl-phenyl)-propionylamino]-biphenyl-3-carboxylic acid amide], the inhibition at 1 µM in assay [1] turned out to be 4%. Further, the inhibition at 10 µM in assay [2] came out at 28%.

For `CN(C)C(=O)c1cccc(-c2cccc(NC(=O)CCc3ccc(C(C)(C)C)cc3)c2)c1` [Cpd 34], the “h Binding % I (1 μM)” value in assay [1] is 17%. Further, the “h % I (10 μM)” value in assay [2] is 14%.

For `CC(C)(C)c1ccc(/C=C/C(=O)Nc2ccc(-c3cccc(C(N)=O)c3)cc2)cc1` [Cpd 35, 4′-[3-(4-tert-butyl-phenyl)-acryloylamino]-biphenyl-3-carboxylic acid amide], the inhibition at 1 µM in assay [1] is 30%. For the same compound, in assay [2] (agonist response), the Emax at 12 µM is 53%.

`CN(C)C(=O)c1cccc(-c2ccc(NC(=O)/C=C/c3ccc(C(C)(C)C)cc3)cc2)c1` [Cpd 36]: the “h Binding % I (1 μM)” value in assay [1] is on record as 16%. For the same compound, in assay [2] (agonist response), the “% Response Relative to EC80 of Capsaicin (12 μM)” value came out at 55%.

`CC(C)(C)c1ccc(CCC(=O)Nc2cccc(-c3cccc(C(N)=O)c3)c2)cc1` [Cpd 37]: the “h Binding % I (1 μM)” value in assay [1] stood at 21%. Besides, the “h % I (10 μM)” value in assay [2] came to 16%.

With `CN(C)C(=O)c1cccc(-c2cccc(NC(=O)CCc3ccc(C(C)(C)C)cc3)c2)c1` [Cpd 38], the “h Binding % I (1 μM)” value in assay [1] came to 1%. Besides, in assay [2], the “h % I (10 μM)” value is given as 17%.

For `CN(C)C(=O)c1cccc(-c2ccc(NC(=O)CCc3ccc(C(C)(C)C)cc3)cc2)c1` [Cpd 39], the “h Binding % I (1 μM)” value in assay [1] is given as 5%. Moreover, the “h % I (10 μM)” value in assay [2] stood at 24%.

Take `CC(C)(C)c1ccc(CCC(=O)Nc2ccc(-c3cccc(NS(C)(=O)=O)c3)cc2)cc1` [Cpd 40]: the “h Binding % I (1 μM)” value in assay [1] amounted to 41%. Also, the “% Response Relative to EC80 of Capsaicin (12 μM)” value in assay [2] (agonist response) is 74%.

`CC(C)(C)OC(=O)Nc1cccc(-c2ccc(NC(=O)CCc3ccc(C(C)(C)C)cc3)cc2)c1` [Cpd 41]: in assay [1], the Ki came out at 109 nM and the inhibition at 1 µM was determined as 78.8%. For the same compound, in assay [2] (agonist response), the Emax at 12 µM was 43%. In assay [2], the inhibition at 10 µM worked out at 30%.

With `CC(C)(C)OC(=O)NCc1cccc(-c2ccc(NC(=O)CCc3ccc(C(C)(C)C)cc3)cc2)c1` [Cpd 42], the “h Binding % I (1 μM)” value in assay [1] is 1.1%. Moreover, the “h % I (10 μM)” value in assay [2] is reported as 9%.

For `CC(C)(C)c1ccc(CCC(=O)Nc2ccc(-c3cccc(CN)c3)cc2)cc1` [Cpd 43], the inhibition at 1 µM in assay [1] was 23%. In addition, in assay [2] (agonist response), the Emax at 12 µM was determined as 104%. Also, the EC50 in assay [2] came out at 1660 nM.

Take `CC(C)(C)c1ccc(CCC(=O)Nc2ccc(-c3cccc(NC(N)=O)c3)cc2)cc1` [Cpd 44]: in assay [1], the affinity, expressed as Ki, was 52 nM and the inhibition at 1 µM amounted to 97%. Moreover, the Emax at 12 µM in assay [2] (agonist response) came to 102%. Moreover, in assay [2], the EC50 came out at 289 nM.

Consider `CC(C)(C)c1ccc(CCC(=O)Nc2ccc(-c3cccc(OCCN)c3)cc2)cc1` [Cpd 45], for which the inhibition at 1 µM in assay [1] was 16%. In assay [2] (agonist response), the Emax at 12 µM amounted to 84%. For the same compound, the EC50 in assay [2] turned out to be 2400 nM.

`CC(C)(C)c1ccc(CCC(=O)Nc2ccc(-c3cccc(NCCO)c3)cc2)cc1` [Cpd 46]: the inhibition at 1 µM in assay [1] is 34%. Moreover, in assay [2], the half-maximal inhibitory concentration (IC50) is 4770 nM and the inhibition at 10 µM came to 53%.

`NC(=O)c1cccc(-c2ccc(NC(=O)CCc3ccc(C(F)(F)F)cc3)cc2)c1` [Cpd 48]: the “h Binding % I (1 μM)” value in assay [1] worked out at 2.1%. Also, the “% Response Relative to EC80 of Capsaicin (12 μM)” value in assay [2] (agonist response) is recorded as 57%.

For `CC(=O)Nc1cccc(-c2ccc(NC(=O)CCc3ccc(C(C)(C)C)cc3)cc2C)c1` [Cpd 55], in assay [1], the affinity corresponds to a Ki of 184 nM and the inhibition at 1 µM stood at 66%. The Emax at 12 µM in assay [2] (agonist response) is 69%.

On to `CC(=O)Nc1cccc(-c2ccc(NC(=O)CCc3ccc(C(C)(C)C)cc3)cc2F)c1` [Cpd 57], for which, in assay [1], the Ki is 266 nM and the inhibition at 1 µM worked out at 66%. Also, the Emax at 12 µM in assay [2] (agonist response) turned out to be 84%.

Turning to `Cc1cc(-c2cccc(O)c2)ccc1NC(=O)CCc1ccc(C(C)(C)C)cc1` [Cpd 58], the “h Binding % I (1 μM)” value in assay [1] came out at 43%. Also, the “% Response Relative to EC80 of Capsaicin (6 μM)” value in assay [2] (agonist response, 6 μM) came out at 19%.

Regarding `Cc1cc(NC(=O)CCc2ccc(C(C)(C)C)cc2)ccc1-c1cccc(O)c1` [Cpd 59, 3-(4-tert-butyl-phenyl)-N-(3′-hydroxy-2-methyl-biphenyl-4-yl)-propionamide], in assay [1], the affinity corresponds to a Ki of 10.7 nM and the inhibition at 1 µM amounted to 103%. Besides, in assay [2], the IC50 came out at 490 nM and the inhibition at 10 µM was 101%.

Consider `CC(C)(C)c1ccc(CCC(=O)Nc2ccc(-c3cccc(O)c3)cc2F)cc1` [Cpd 60], for which, in assay [1], the affinity, expressed as Ki, was 541 nM and the inhibition at 1 µM was found to be 52%. In assay [2] (agonist response), the Emax at 12 µM was found to be 84%.

Regarding `CC(C)(C)c1ccc(CCC(=O)Nc2ccc(-c3cccc(O)c3)c(F)c2)cc1` [Cpd 61], in assay [1], the Ki was found to be 53.3 nM and the inhibition at 1 µM amounted to 96%. For the same compound, the Emax at 12 µM in assay [2] (agonist response) was 68%.

The term Ki denotes a measure of affinity in units of concentration, obtained from inhibition or displacement. One may read the IC50 as the point on the concentration scale where inhibition reaches its midpoint. As usually defined, the EC50 is the concentration giving half of the maximal effect.
